Reference: the supplement of paper PMC10307832

Key:
Assay in all cases: relative viability (nuclei count vs DMSO), 5 days (fraction); higher = more cells survive
[1] = compound: Cn1nnc2c(C(N)=O)ncn2c1=O [Temozolomide] + CC(=O)c1c(C)c2cnc(Nc3ccc(N4CCNCC4)cn3)nc2n(C2CCCC2)c1=O [Palbociclib] (partner 0.5 µM)
In short: (§1)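 Each reported value is a median over duplicate plates. It expresses relative viability: treated-well nuclei count divided by vehicle-well nuclei count. Lung cancer cell lines in 1536-well plates were dosed by pin tool a day after seeding, alone with one drug or with a fixed anchor-drug dose plus five library-drug doses (not always all listed) in √10 steps, and nuclei were counted after 5 days.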

[2] = compound: Cn1nnc2c(C(N)=O)ncn2c1=O [Temozolomide] + CS(=O)(=O)N1CCN(Cc2cc3nc(-c4cccc5[nH]ncc45)nc(N4CCOCC4)c3s2)CC1 [Pictilisib] (partner 1 µM)
In short: as §1

AZD5582 + Palbociclib = compound: C[C@@H](C(=O)N[C@@H](C1CCCCC1)C(=O)N2CCC[C@H]2C(=O)N[C@@H]3[C@@H](CC4=CC=CC=C34)OCC#CC#CCO[C@@H]5CC6=CC=CC=C6[C@@H]5NC(=O)[C@@H]7CCCN7C(=O)[C@H](C8CCCCC8)NC(=O)[C@H](C)NC)NC [AZD5582] + CC(=O)c1c(C)c2cnc(Nc3ccc(N4CCNCC4)cn3)nc2n(C2CCCC2)c1=O [Palbociclib] (partner 0.5 µM)
In short: as §1

[3] = compound: Cn1nnc2c(C(N)=O)ncn2c1=O [Temozolomide] + CC(=O)Nc1cccc(-n2c(=O)n(C3CC3)c(=O)c3c(Nc4ccc(I)cc4F)n(C)c(=O)c(C)c32)c1 [Trametinib] (partner 0.02 µM)
In short: as §1

| Cell Line | relative viability ([1]; first compound 0.2 µM) | relative viability ([1]; first compound 0.6325 µM) | relative viability ([1]; first compound 2 µM) | relative viability ([1]; first compound 6.325 µM) | relative viability ([1]; first compound 20 µM) | relative viability ([2]; first compound 0.2 µM) | relative viability ([2]; first compound 0.6325 µM) | relative viability ([2]; first compound 2 µM) | relative viability ([2]; first compound 6.325 µM) | relative viability ([2]; first compound 20 µM) | relative viability (AZD5582 + Palbociclib; first compound 0.001581 µM) | relative viability (AZD5582 + Palbociclib; first compound 0.005 µM) | relative viability (AZD5582 + Palbociclib; first compound 0.01581 µM) | relative viability (AZD5582 + Palbociclib; first compound 0.05 µM) | relative viability ([3]; first compound 0.2 µM) | relative viability ([3]; first compound 0.6325 µM) | relative viability ([3]; first compound 2 µM) | relative viability ([3]; first compound 6.325 µM) | relative viability ([3]; first compound 20 µM) |
| --- | --- | --- | --- | --- | --- | --- | --- | --- | --- | --- | --- | --- | --- | --- | --- | --- | --- | --- | --- |
| 201T | 0.348 | 0.361 | 0.382 | 0.362 | 0.355 | 0.683 | 0.731 | 0.735 | 0.69 | 0.641 | 0.375 | 0.357 | 0.316 | 0.43 | 0.707 | 0.72 | 0.725 | 0.681 | 0.714 |
| A549 |  |  |  |  |  | 0.61 | 0.471 | 0.525 | 0.507 | 0.504 |  |  |  |  |  |  |  |  |  |
| A-427 | 0.519 | 0.575 | 0.518 | 0.492 | 0.427 | 0.816 | 0.733 | 0.797 | 0.417 | 0.329 | 0.462 | 0.473 | 0.528 | 0.495 | 0.807 | 0.711 | 0.69 | 0.502 | 0.458 |
| ABC-1 | 0.639 | 0.777 | 0.707 | 0.65 | 0.65 | 0.726 | 0.8 | 0.881 | 0.609 | 0.53 | 0.658 | 0.834 | 0.492 | 0.625 |  |  |  |  |  |
| BEN | 0.483 | 0.466 | 0.469 | 0.487 | 0.471 | 0.467 | 0.629 | 0.657 | 0.552 | 0.484 | 0.416 | 0.466 | 0.497 | 0.435 | 0.813 | 1.12 | 1.1 | 1 | 0.853 |
| CAL-12T | 0.285 | 0.568 | 0.608 | 0.484 | 0.405 |  | 0.434 | 0.425 | 0.334 | 0.391 | 0.2 | 0.225 | 0.309 | 0.159 | 0.285 | 0.369 | 0.337 | 0.418 | 0.268 |
| COR-L23 | 0.383 | 0.398 | 0.311 | 0.266 | 0.269 | 1.01 | 0.771 | 0.961 | 0.829 | 0.715 | 0.238 | 0.329 | 0.269 | 0.305 | 0.624 | 0.614 | 0.641 | 0.534 | 0.545 |
| COR-L 105 | 0.433 | 0.446 | 0.402 | 0.383 | 0.33 | 0.408 | 0.366 | 0.433 | 0.39 | 0.273 | 0.383 | 0.394 | 0.415 | 0.452 | 0.425 | 0.42 | 0.395 | 0.431 | 0.402 |
| Calu-6 |  |  |  |  |  | 1.21 | 0.939 | 0.883 | 0.867 | 0.974 |  |  |  |  |  |  |  |  |  |
| ChaGo-K-1 | 1.05 | 0.967 | 0.967 | 0.873 | 0.917 | 0.784 | 0.904 | 1.02 | 0.635 | 0.581 | 0.882 | 0.943 | 0.921 | 1.01 | 0.959 | 0.87 | 0.967 | 0.9 | 0.887 |
| EBC-1 |  |  |  |  |  | 0.493 | 0.358 | 0.388 | 0.387 | 0.416 |  |  |  |  |  |  |  |  |  |
| EKVX |  | 0.322 | 0.292 | 0.323 | 0.223 | 0.23 | 0.38 | 0.391 | 0.379 | 0.273 | 0.378 | 0.425 | 0.298 | 0.393 |  | 0.318 | 0.286 | 0.338 | 0.247 |
| EMC-BAC-2 | 0.563 | 0.534 | 0.542 | 0.511 | 0.514 | 0.535 | 0.596 | 0.587 | 0.497 | 0.495 | 0.472 | 0.527 | 0.503 | 0.513 | 0.906 | 0.891 | 0.916 | 0.891 | 0.85 |
| EPLC-272H | 0.319 | 0.337 | 0.356 | 0.321 | 0.299 | 0.356 | 0.35 | 0.334 | 0.298 | 0.326 | 0.165 |  | 0.32 | 0.127 | 0.241 | 0.279 | 0.338 | 0.324 | 0.277 |
| H3255 |  | 0.315 | 0.302 | 0.312 | 0.297 |  | 0.539 | 0.422 | 0.38 | 0.0897 | 0.29 | 0.306 | 0.302 | 0.318 |  | 0.62 | 0.656 | 0.63 | 0.214 |
| HARA |  | 0.307 | 0.303 | 0.302 | 0.233 | 0.376 | 0.484 | 0.603 | 0.438 | 0.256 | 0.257 | 0.275 | 0.233 | 0.318 | 0.717 | 0.601 | 0.886 | 0.89 | 0.441 |
| HCC-15 | 0.778 | 0.717 | 0.805 | 0.691 | 0.706 | 0.818 | 0.82 | 0.737 | 0.693 | 0.786 | 0.501 | 0.582 | 0.615 | 0.309 | 0.38 | 0.392 | 0.417 | 0.318 | 0.385 |
